Experiments:
Format in all cases: cell-based
Settings in all cases: after 10, 20, 40 and 60 minutes at all dilutions 1:100, 1:200, 1:400, and 1:800
Candida albicans = assay: Antimicrobial activity by agar dilution, Candida albicans
Method: (§1) The antibacterial properties of the synthesized compound (pyridino-2,16-dioxapentacyclo[7.7.5.0^1,21.0^3,8.0^10,15]henicosa3(8),10,12,14-tetraene-7,20-dione) were studied by the method of agar dilution. Test solutions of each compound was prepared in concentration of 1% using dimethylformamide as a solvent. Then they were diluted in physiological solution to obtain the final experimental dilutions of 1:100, 1:200, 1:400, and 1:800. The effect of these substances were compared with furacillin in a controllable study. The testing microbes used were gram positive bacteria Staphylococcus aureus, gram negative bacteria Pseudomonas aeruginosa, Escherichia coli, and Candida albicans fungus. The experiments used for this survey were meat-pentonlu agar (EPA) for cultivation of bacteria and Saburo environment for fungi. Each experiment used 1 mL of test solution on each plate for 500 minutes. Two drops of emulsified with microbes feel were added. All experimental samples were taken from the agar after 10, 20, 40, 60 minutes in the environment on the basis of Patrk planted. Bacteria were cultivated at a temperature of 37° C. for 1 day and the mushroom was kept in a thermostat for […] at a temperature of 28° C. Then results were checked. Those of control and the antimicrobial activity for the synthesized compounds are listed in Table 1 below, with furacillin serving as a reference.

Pseudomonas aeruginosa = assay: Antimicrobial activity by agar dilution, Ps. aeruginosa
Method: as §1

Staphylococcus aureus = assay: Antimicrobial activity by agar dilution, St. Aereus
Method: as §1

Escherichia coli = assay: Antimicrobial activity by agar dilution, E. Coli
Method: as §1

O=C1CCCC2=C1C1c3cccnc3OC3(CCCC(=O)C13)O2 (stereo not shown) [pyridino-2,16-dioxapentacyclo[7.7.5.0^1,21.0^3,8.0^10,15]henicosa3(8),10,12,14-tetraene-7,20-dione]
higher inhibition activity: inhibition activity compared with Furacilin, Candida albicans (Candida albicans) | inhibition activity compared with Furacilin, Pseudomonas aeruginosa (Pseudomonas aeruginosa) | inhibition activity compared with Furacilin, Staphylococcus aureus (Staphylococcus aureus) | inhibition activity compared with Furacilin, Escherichia coli (Escherichia coli)
